Consider 5 molecules from ChEMBL document CHEMBL4814007, “Structure-based discovery of SIAIS001 as an oral bioavailability ALK degrader constructed from Alectinib” (Eur J Med Chem, 2021).

pIC50: −log10 of the molar value. Active and inactive are the calls of the source. The rule behind the calls is not given here.

Data set [1] addresses T1, von Hippel-Lindau disease tumor suppressor/ALK tyrosine kinase receptor (Homo sapiens) (UniProt Q9UM73+P40337). In words: Protac activity at VHL1/ALK in human SR cells assessed as increase in ALK degradation at 500 nM by Western blot analysis. Format: cell-based. On the technique in general: Immunoblotting shows a protein as a band on a membrane.
Data set [2] relates to SR. Nature of the data set: Antiproliferative activity against ALK positive human SR cells. Format: functional, cell-based.
The target in data set [3] is T1, von Hippel-Lindau disease tumor suppressor/ALK tyrosine kinase receptor (Homo sapiens). Nature of the data set: Protac activity at VHL/ALK in human SR cells assessed as protein abundance at 0.05 nM by Western blot analysis (reference value: 1). Format: cell-based.
For data set [4] the target is unchanged. In words: Protac activity at VHL/ALK in human SR cells assessed as protein abundance at 0.5 nM by Western blot analysis (reference value: 1). Format: cell-based.
Data set [5] shares this target. In words: Protac activity at VHL/ALK in human SR cells assessed as protein abundance at 5 nM by Western blot analysis (reference value: 1). Format: cell-based.
The target is the same in data set [6]. Nature of the data set: Protac activity at VHL/ALK in human SR cells assessed as protein abundance at 50 nM by Western blot analysis (reference value: 1). The class given is cell-based.
Data set [7] shares this target. Nature of the data set: Protac activity at VHL/ALK in human SR cells assessed as protein abundance at 500 nM by Western blot analysis (reference value: 1). The class given is cell-based.
The subject of data set [8] is SR. In words: Induction of cell cycle arrest in human SR cells assessed as increase in accumulation at G1/S phase at 100 nM incubated for 24 hrs. The class given is functional, cell-based.
In data set [9] the test system is SR. In words: Induction of cell cycle arrest in human SR cells assessed as increase in accumulation at S phase at 100 nM incubated for 24 hrs. The class given is functional, cell-based.
The target of data set [10] is T2, Protein cereblon/ALK tyrosine kinase receptor (Homo sapiens, UniProt Q9UM73+Q96SW2). Nature of the data set: Protac activity at CRBN/ALK in human SR cells assessed as protein abundance at 0.5 nM by Western blot analysis (reference value: 1). Format: cell-based.
Target sequence in this assay (Q96SW2 whole entry partner): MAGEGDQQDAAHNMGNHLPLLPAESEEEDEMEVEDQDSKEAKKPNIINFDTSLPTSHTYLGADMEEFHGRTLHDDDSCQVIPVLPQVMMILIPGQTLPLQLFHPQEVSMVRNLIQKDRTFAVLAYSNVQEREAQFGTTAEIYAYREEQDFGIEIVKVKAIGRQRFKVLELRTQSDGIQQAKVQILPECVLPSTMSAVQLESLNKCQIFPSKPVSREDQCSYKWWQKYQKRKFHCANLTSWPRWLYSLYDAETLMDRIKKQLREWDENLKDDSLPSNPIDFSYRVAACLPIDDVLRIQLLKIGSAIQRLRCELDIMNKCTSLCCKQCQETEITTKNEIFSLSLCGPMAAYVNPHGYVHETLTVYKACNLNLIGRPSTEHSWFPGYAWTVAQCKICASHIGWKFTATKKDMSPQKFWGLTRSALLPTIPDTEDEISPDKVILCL
Target sequence in this assay (Q9UM73 19-1620 limits assumed): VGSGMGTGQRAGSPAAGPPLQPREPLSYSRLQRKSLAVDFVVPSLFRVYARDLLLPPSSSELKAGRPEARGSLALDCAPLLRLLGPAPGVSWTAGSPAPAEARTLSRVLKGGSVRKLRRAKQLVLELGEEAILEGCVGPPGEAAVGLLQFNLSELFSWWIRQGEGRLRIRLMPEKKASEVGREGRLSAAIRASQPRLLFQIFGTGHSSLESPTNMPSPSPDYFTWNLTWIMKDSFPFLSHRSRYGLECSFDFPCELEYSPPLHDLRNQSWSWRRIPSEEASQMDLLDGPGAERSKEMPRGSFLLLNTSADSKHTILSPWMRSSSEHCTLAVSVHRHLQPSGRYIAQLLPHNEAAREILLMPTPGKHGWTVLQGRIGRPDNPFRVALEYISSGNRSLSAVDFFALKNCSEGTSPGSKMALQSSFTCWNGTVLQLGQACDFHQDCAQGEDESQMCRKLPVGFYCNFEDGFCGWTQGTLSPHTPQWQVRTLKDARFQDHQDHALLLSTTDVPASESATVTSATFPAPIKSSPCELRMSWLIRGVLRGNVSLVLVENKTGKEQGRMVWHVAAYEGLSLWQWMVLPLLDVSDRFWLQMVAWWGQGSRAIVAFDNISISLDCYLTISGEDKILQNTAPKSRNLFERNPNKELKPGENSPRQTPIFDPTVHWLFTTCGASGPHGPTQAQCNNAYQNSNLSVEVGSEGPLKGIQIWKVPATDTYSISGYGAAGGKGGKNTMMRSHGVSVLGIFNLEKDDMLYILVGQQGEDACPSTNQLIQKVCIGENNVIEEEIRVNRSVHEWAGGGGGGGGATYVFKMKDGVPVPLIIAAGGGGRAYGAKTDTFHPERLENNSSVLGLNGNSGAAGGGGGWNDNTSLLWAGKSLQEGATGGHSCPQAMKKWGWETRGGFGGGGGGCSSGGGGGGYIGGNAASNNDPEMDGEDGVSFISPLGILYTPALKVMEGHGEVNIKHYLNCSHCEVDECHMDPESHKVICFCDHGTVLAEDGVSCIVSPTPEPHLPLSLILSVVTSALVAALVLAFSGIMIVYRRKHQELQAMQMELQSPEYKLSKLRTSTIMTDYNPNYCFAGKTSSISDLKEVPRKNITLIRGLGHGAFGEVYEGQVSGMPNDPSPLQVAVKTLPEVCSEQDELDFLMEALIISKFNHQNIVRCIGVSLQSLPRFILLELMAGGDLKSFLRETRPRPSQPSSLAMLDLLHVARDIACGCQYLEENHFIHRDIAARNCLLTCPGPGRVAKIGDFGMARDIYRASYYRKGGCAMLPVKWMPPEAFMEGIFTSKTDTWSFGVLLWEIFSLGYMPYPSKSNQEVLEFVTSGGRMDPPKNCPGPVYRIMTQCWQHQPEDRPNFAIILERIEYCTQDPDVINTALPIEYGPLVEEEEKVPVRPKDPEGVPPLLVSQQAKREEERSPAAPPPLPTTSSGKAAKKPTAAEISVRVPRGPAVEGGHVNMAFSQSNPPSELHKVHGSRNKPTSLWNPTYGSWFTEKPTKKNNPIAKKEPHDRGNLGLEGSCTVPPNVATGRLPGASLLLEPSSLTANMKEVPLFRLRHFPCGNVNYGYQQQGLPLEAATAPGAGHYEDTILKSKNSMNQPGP
Data set [11] addresses T3, ALK tyrosine kinase receptor (Homo sapiens, UniProt Q9UM73). In words: Inhibition of ALK (unknown origin).
Target sequence in this assay (Q9UM73 whole entry): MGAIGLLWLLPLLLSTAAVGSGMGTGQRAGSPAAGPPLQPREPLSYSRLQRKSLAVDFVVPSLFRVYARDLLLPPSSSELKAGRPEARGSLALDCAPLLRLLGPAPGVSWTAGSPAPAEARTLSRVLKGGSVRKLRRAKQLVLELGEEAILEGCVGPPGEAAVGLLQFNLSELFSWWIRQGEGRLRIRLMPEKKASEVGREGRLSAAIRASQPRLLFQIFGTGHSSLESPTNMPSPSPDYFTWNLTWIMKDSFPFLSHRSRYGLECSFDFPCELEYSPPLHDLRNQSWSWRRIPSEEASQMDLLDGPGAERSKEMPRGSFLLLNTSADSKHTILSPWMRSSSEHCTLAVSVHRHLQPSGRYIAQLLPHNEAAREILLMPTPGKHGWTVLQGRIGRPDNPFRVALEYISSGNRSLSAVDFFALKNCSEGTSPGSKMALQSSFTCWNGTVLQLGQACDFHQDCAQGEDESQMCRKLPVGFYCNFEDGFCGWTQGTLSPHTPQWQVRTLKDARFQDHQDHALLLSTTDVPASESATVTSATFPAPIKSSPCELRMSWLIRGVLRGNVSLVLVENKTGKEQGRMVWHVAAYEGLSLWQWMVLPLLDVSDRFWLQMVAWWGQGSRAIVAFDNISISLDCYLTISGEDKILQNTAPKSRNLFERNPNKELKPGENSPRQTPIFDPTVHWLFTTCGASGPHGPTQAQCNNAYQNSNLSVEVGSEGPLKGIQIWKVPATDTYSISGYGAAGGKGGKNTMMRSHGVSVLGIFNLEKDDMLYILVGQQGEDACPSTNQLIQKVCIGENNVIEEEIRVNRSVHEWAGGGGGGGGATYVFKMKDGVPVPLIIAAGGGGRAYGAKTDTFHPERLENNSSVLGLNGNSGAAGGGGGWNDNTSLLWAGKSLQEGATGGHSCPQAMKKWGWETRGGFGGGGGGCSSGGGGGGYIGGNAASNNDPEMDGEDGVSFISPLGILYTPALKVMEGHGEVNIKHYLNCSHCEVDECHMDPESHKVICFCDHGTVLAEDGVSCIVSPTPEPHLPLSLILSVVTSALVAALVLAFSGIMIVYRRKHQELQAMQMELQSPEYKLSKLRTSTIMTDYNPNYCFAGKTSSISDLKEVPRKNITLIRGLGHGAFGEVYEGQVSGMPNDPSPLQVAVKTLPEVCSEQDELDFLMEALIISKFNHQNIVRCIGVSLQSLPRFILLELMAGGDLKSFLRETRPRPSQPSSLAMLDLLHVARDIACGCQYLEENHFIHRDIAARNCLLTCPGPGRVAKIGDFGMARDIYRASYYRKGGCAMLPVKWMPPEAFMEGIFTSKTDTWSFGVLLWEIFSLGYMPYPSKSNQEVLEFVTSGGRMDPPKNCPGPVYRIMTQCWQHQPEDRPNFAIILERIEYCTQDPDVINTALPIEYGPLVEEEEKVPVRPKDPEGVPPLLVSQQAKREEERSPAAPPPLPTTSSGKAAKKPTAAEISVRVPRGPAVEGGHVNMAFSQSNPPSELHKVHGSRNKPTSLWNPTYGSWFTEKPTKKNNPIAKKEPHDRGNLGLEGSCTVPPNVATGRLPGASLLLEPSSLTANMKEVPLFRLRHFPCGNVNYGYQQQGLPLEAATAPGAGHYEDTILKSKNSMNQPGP
Data set [12] has as its target T2, Protein cereblon/ALK tyrosine kinase receptor. In words: Protac activity at CRBN/ALK in human SR cells assessed as protein abundance at 5 nM by Western blot analysis (reference value: 1). Format: cell-based.
Target sequence in this assay (Q96SW2 whole entry partner): as the sequence (Q96SW2 whole entry partner) above
Target sequence in this assay (Q9UM73 19-1620 limits assumed): as the sequence (Q9UM73 19-1620 limits assumed) above
For data set [13], the system named is SR. Nature of the data set: Potency index, ratio of alectinib IC50 to test compound IC50 for antiproliferative activity against ALK positive human SR cells. Format: functional.
The target in data set [14] is T2, Protein cereblon/ALK tyrosine kinase receptor. In words: Protac activity at CRBN/ALK in human SR cells assessed as induction of ALK degradation at 0.05 to 500 nM by Western blot analysis relative to control. The following applies: dose 0.05-500 nM. The class given is cell-based.
Target sequence in this assay (Q96SW2 whole entry partner): as the sequence (Q96SW2 whole entry partner) above
Target sequence in this assay (Q9UM73 19-1620 limits assumed): as the sequence (Q9UM73 19-1620 limits assumed) above
The target is the same in data set [15]. In words: Protac activity at CRBN/ALK in human SR cells assessed as increase in ALK degradation at 200 nM by Western blot analysis relative to control. The class given is cell-based.
Target sequence in this assay (Q96SW2 whole entry partner): as the sequence (Q96SW2 whole entry partner) above
Target sequence in this assay (Q9UM73 19-1620 limits assumed): as the sequence (Q9UM73 19-1620 limits assumed) above
For data set [16] the target is unchanged. Nature of the data set: Protac activity at CRBN/ALK in human SR cells assessed as increase in ALK degradation at 50 nM in presence of MG132 by Western blot analysis. The class given is cell-based.
Target sequence in this assay (Q96SW2 whole entry partner): as the sequence (Q96SW2 whole entry partner) above
Target sequence in this assay (Q9UM73 19-1620 limits assumed): as the sequence (Q9UM73 19-1620 limits assumed) above
For data set [17] the target is unchanged. Nature of the data set: Protac activity at CRBN/ALK in human SR cells assessed as protein abundance at 0.05 nM by Western blot analysis (reference value: 1). The class given is cell-based.
Target sequence in this assay (Q96SW2 whole entry partner): as the sequence (Q96SW2 whole entry partner) above
Target sequence in this assay (Q9UM73 19-1620 limits assumed): as the sequence (Q9UM73 19-1620 limits assumed) above
The target in data set [18] is T3, ALK tyrosine kinase receptor. Nature of the data set: Inhibition of ALK phosphorylation in human SR cells at 0.5 nM. The class given is cell-based.
Target sequence in this assay (Q9UM73 19-1620 limits assumed): as above
The test system of data set [19] is SR. Nature of the data set: Potency index, ratio of ceritinib IC50 to test compound IC50 for antiproliferative activity against ALK positive human SR cells. Format: functional.
Data set [20] has as its target T2, Protein cereblon/ALK tyrosine kinase receptor. Nature of the data set: Protac activity at CRBN/ALK in human SR cells assessed as induction of ALK degradation by Western blot analysis. The class given is cell-based.
Target sequence in this assay (Q9UM73 whole entry): as the sequence (Q9UM73 whole entry) above
Target sequence in this assay (Q96SW2 whole entry): as the sequence (Q96SW2 whole entry partner) above
Data set [21] shares this target. In words: Protac activity at CRBN/ALK in human SR cells assessed as increase in ALK degradation at 50 nM in presence of MLN4924/MG132 by Western blot analysis. Format: cell-based.
For data set [22] the target is unchanged. Nature of the data set: Protac activity at CRBN/ALK in human SR cells assessed as increase in ALK degradation at 500 nM by Western blot analysis. The class given is cell-based.
For data set [23] the target is unchanged. Nature of the data set: Protac activity at CRBN/ALK in human SR cells assessed as protein abundance at 50 nM by Western blot analysis (reference value: 1). The class given is cell-based.
Data set [24] has the same target. Nature of the data set: Protac activity at CRBN/ALK in human SR cells assessed as protein abundance at 500 nM by Western blot analysis (reference value: 1). The class given is cell-based.
The target in data set [25] is T3, ALK tyrosine kinase receptor. Nature of the data set: Inhibition of ALK in human SR cells assessed as reduction in STAT3 phosphorylation at 50 nM. The class given is cell-based.
Target sequence in this assay (Q9UM73 19-1620 limits assumed): as the sequence (Q9UM73 19-1620 limits assumed) above
Data set [26] can be described thus: Oral bioavailability in rat at 10 mg/kg. Format: ADME, organism-based. To be noted: in vivo.
Data set [27] in a line: Stability in liver microsomes (unknown origin). The class given is ADME, Microsome.
Data set [28] in a line: Cmax in rat at 2 mg/kg, ip. The class given is ADME, organism-based. Also noted: route intraperitoneal, dose 2 mg/kg. The following applies: in vivo.
Data set [29] in a line: Plasma concentration in rat at 10 mg/kg, po measured after 4 hrs. Format: ADME, organism-based.
Data set [30] is described as follows: Toxicity in rat at 10 mg/kg, po assessed as adverse effect. The class given is organism-based. The following applies: in vivo.

T1 sequence (P40337 whole entry partner): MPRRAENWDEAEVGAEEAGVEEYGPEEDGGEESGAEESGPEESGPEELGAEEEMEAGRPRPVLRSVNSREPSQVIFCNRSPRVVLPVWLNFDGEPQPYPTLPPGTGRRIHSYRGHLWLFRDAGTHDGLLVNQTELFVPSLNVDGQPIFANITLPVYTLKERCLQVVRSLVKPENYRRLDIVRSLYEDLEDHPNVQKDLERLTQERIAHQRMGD
T1 sequence (Q9UM73 19-1620 limits assumed): as the sequence (Q9UM73 19-1620 limits assumed) above

Take `CCc1cc2c(cc1N1CCC(N3CCN(C(=O)CCCCCCCCC(=O)NC(C(=O)N4C[C@H](O)C[C@H]4C(=O)NCc4ccc(-c5scnc5C)cc4)C(C)(C)C)CC3)CC1)C(C)(C)c1[nH]c3cc(C#N)ccc3c1C2=O` (single isomer, unassigned): the result in data set [1] was Active. In addition, the pIC50 in data set [2] is 7.74.
Consider `CCc1cc2c(cc1N1CCC(N3CCN(C(=O)CCCCC(=O)NC(C(=O)N4C[C@H](O)C[C@H]4C(=O)NCc4ccc(-c5scnc5C)cc4)C(C)(C)C)CC3)CC1)C(C)(C)c1[nH]c3cc(C#N)ccc3c1C2=O` (single isomer, unassigned), for which the result in [1] was Active. Also, the Activity worked out at 0.96 in [3]; 1.14 in data set [4]; 1.04 in [5]; 0.93 in data set [6]; 0.43 in [7]. In addition, the negative logarithm of the IC50 (pIC50) in [2] is 7.49.
Turning to `CCc1cc2c(cc1N1CCC(N3CCOCC3)CC1)C(C)(C)c1[nH]c3cc(C#N)ccc3c1C2=O` [ALECTINIB], the result in data set [8] and in data set [9] was Active. In data set [2], this molecule had a negative logarithm of the IC50 (pIC50) of 8.47.
Take `CCc1cc2c(cc1N1CCC(N3CCN(C(=O)CNc4cccc5c4CN(C4CCC(=O)NC4=O)C5=O)CC3)CC1)C(C)(C)c1[nH]c3cc(C#N)ccc3c1C2=O` (stereo not drawn): the Activity in data set [10] is 0.67; in [12], 0.48; in data set [15] it was > 50%; in [17], 0.9; in data set [23], 0.24; in data set [24] it was 0.27. Besides, the results for the pIC50 in [11] and in data set [2] were 8.33 and 9.30, respectively. Moreover, the Ratio was determined as 6 in [13] and 5 in [19]. Moreover, the outcome in [8] and in data set [22] was Active. The maximum response (Emax) in data set [14] stood at 87.7%. The result in data set [16], in data set [9] and in data set [21] was inactive. The inhibition result in data set [18] and in data set [25] was “inactive” throughout. Further, in data set [20], the DC50 was found to be 6300 nM.
For the molecule `CCc1cc2c(cc1N1CCC(N3CCN(CCCC#Cc4cccc5c4CN(C4CCC(=O)NC4=O)C5=O)CC3)CC1)C(C)(C)c1[nH]c3cc(C#N)ccc3c1C2=O` (stereo not drawn), the bioavailability in [26] was 16%. Besides, the Activity in data set [10] was 0.92; in data set [12] it was 0.56; in [17], 1.03; in [23] it was 0.37; in data set [30] it was “Non-Toxic”; in [24] it was 0.37. In addition, the Stabilty entry in [27] was “Stable”. The pIC50 was 8.48 in data set [11] and 9.05 in [2]. In [28], this molecule had a Cmax of 83.5 ng/mL. The result in data set [8] and in [22] was Active. Also, in data set [14], the Emax amounted to 70.3%. Also, the result in data set [16], in data set [9] and in data set [21] was inactive. Besides, the inhibition result in data set [18] and in data set [25] was “Active” in each case. The molecule further showed a concentration at 4 h in [29] of 100 ng/mL. Moreover, the Ratio in data set [19] is 5. In addition, the 50% degradation concentration (DC50) in data set [20] came out at 3900 nM.

The term pIC50 denotes the IC50 on a negative log10 scale, so that one unit is a factor of ten. A low value points to a high IC50. Usually Emax stands for the size of the effect at its maximum, as opposed to the concentration needed. The term DC50 denotes the concentration giving 50% degradation. By bioavailability is commonly meant dose-corrected exposure relative to a reference, in per cent. Low values mean little systemic uptake, high ones much systemic uptake. What is called Cmax is the highest concentration seen after dosing.
